Literature values, collected in patent publication US20060216365A1, “Aromatherapeutic environmental system” (priority 2000, published 2006).

What was measured:
[1] = mice, literature (Hikino et al 1980)
[2] = system: monoamine oxidase; details: literature (Truitt 1967)
[3] = mice, literature (Hikino et al 1980); remark: listed apart in the source

| Compound | prolongation of hexobarbital-induced sleep / enhancement of hexobarbital anesthesis [1] | monoamine oxidase inhibiting activity [2] | inhibition of stress-induced ulcer formation [3] |
| --- | --- | --- | --- |
| Kessyl glycol 2-acetate | active principles | – | – |
| Kessyl glycol 8-acetate | active principles | – | – |
| C=CCc1cc(OC)c2c(c1)OCO2 [myristicin] | – | mild degree | – |
| CC(=O)O[C@H]1C[C@@H]2C[C@H]3[C@@H]([C@H](OC(C)=O)C[C@H]3C)[C@]1(C)OC2(C)C [Kessyl glycol diacetate] | active principles | – | no inhibitory action |
